Patent publication US7015228B2, “4-amino-2-(2-pyridyl)pyrimidines as microbicidal active substances” (Ciba Specialty Chemicals Corporation, priority 2001, dated 2006)
Values after ≈ are worked out from the molar mass of the structure shown.

Assays:
[1] = system: Staphylococcus hominis DMS 20328; assay: Minimum inhibitory concentration (MIC) in microtitre plates; type: cell-based; settings: Table 7, 48 hours at 37° C., MIC = ≦20% growth compared to control
Procedure: (§1) Determination of the Minimum Inhibitory Concentration (MIC Value) in Microtitre Plates
(§2) Casein-soybean flour-peptone broth for preparation of pre-cultures of test bacteria and yeast.
(§3) Mycological slant agar for the pre-culture of moulds
(§4) Examples of Test Organisms:
(§5) The test substances are pre-dissolved in dimethyl sulfoxide (DMSO) and tested in a dilution series of 1:2.
(§6) Bacteria and yeast are cultured overnight in CASO broth, the mould is cultured overnight on mycological slant agar, and washed off using 10 ml of 0.85% sodium chloride solution (+0.1% Triton X-100).
(§7) All the test organisms are adjusted to an organism count of 1–5×10^6 CFU/ml using 0.85% sodium chloride solution.
(§8) The test substances are pre-pipetted into microtitre plates in amounts of 8 μl per well.
(§9) Pre-diluted organism suspensions are diluted 1:100 in CASO broth (bacteria and yeast) or Sabouraud 2% glucose broth (mould) and are added in amounts of 192 μl per well to the test substances.
(§10) The test batches are incubated for 48 hours at 37° C. (bacteria and yeast) or for 5 days at 28° C. (mould).
(§11) After incubation, the growth is determined on the basis of the turbidity of the test batches (optical density) at 620 nm in a microplate reader.
(§12) The minimum inhibitory concentration (MIC value) is the concentration of substance at which there is found (compared to the growth of the control) an appreciable inhibition of growth (≦20% growth) of the test organisms.
(§13) One microtitre plate is used for each test organism and substance concentration. All the substances are tested in duplicate.

[2] = system: Escherichia coli NCTC 8196; assay: as above; type: cell-based; settings: Table 7, 48 hours at 37° C., MIC = ≦20% growth compared to control
Procedure: as §1, §2, §3, §4, §5, §6, §7, §8, §9, §10, §11, §12, §13

SMILES	Minimum inhibitory concentration (MIC) S. hominis [1] [µg/mL]	Minimum inhibitory concentration (MIC) E. coli [2] [µg/mL]	MIC ([1]; Staphylococcus hominis, DMS20328, read-out: Minimum inhibitory concentration (MIC) S. hominis) [µg/mL]	MIC ([2]; Escherichia coli, NCTC8196, read-out: Minimum inhibitory concentration (MIC) E. coli) [µg/mL]
CCCCCCCNc1cc(C)nc(-c2ccccn2)n1 [compound 20]	7.5 (≈ 26.4 µM)	120 (≈ 422 µM)	–	–
NCCCCCCCNc1cc(C(F)(F)F)nc(-c2ccccn2)n1 [compound 28]	>80	>80	–	–
NCCCCCCCCNc1cc(C(F)(F)F)nc(-c2ccccn2)n1 [compound 29]	>80	>80	–	–
CCCCCCCCCCCCNc1cc(C(F)(F)F)nc(-c2ccccn2)n1 [compound 36]	–	–	60 (≈ 147 µM)	> 120
FC(F)(F)c1cc(NC2CCCCC2)nc(-c2ccccn2)n1 [compound 38]	60 (≈ 186 µM)	>120	–	–
FC(F)(F)c1cc(NCCc2ccccc2)nc(-c2ccccn2)n1 [compound 39]	30 (≈ 87.1 µM)	>120	–	–
CC(C)c1cc(NC2CCCCC2)nc(-c2ccccn2)n1 [compound 50]	15 (≈ 50.6 µM)	>120	–	–
CC(C)c1cc(NCCc2ccccc2)nc(-c2ccccn2)n1 [compound 51]	30 (≈ 94.2 µM)	>120	–	–
CCCCCCCCCCCCCCCCNc1cc(C(C)(C)C)nc(-c2ccccn2)n1 [compound 61]	>120	>120	–	–
Cc1nc(-c2ccccn2)nc(NC2CCCCC2)c1C(C)C [compound 74]	60 (≈ 193 µM)	>120	–	–
Cc1nc(-c2ccccn2)nc(NCCc2ccccc2)c1C(C)C [compound 75]	30 (≈ 90.2 µM)	>120	–	–
COCCc1cc(NCCCCCCCN)nc(-c2ccccn2)n1 [compound 76]	40 (≈ 116 µM)	>80	–	–
CCCCCCCNc1cc(CCOC)nc(-c2ccccn2)n1 [compound 80]	30 (≈ 91.3 µM)	>120	–	–
CCCCCCCCNc1cc(CCOC)nc(-c2ccccn2)n1 [compound 81]	15 (≈ 43.8 µM)	>120	–	–
CCCCCCCCCNc1cc(CCOC)nc(-c2ccccn2)n1 [compound 82]	7.5 (≈ 21 µM)	120 (≈ 337 µM)	–	–
CCCCCCCCCCCCCCCCNc1cc(CCOC)nc(-c2ccccn2)n1 [compound 85]	120 (≈ 264 µM)	120 (≈ 264 µM)	–	–
COCCc1cc(NC2CCCCC2)nc(-c2ccccn2)n1 [compound 86]	120 (≈ 384 µM)	>120	–	–
COCCc1cc(NCCc2ccccc2)nc(-c2ccccn2)n1 [compound 87]	30 (≈ 89.7 µM)	120 (≈ 359 µM)	–	–
CCc1c(C)nc(-c2ccccn2)nc1NCc1ccccc1 [compound 88]	120 (≈ 394 µM)	120 (≈ 394 µM)	–	–
Cc1cc(NCc2ccccc2)nc(-c2ccccn2)n1 [compound 91]	30 (≈ 109 µM)	>120	–	–
FC(F)(F)c1cc(NCc2ccccc2)nc(-c2ccccn2)n1 [compound 94]	>120	>120	–	–
CCCCCCCCCCCNc1cc(C(F)(F)F)nc(-c2ccccn2)n1 [compound 95]	120 (≈ 304 µM)	>120	–	–
CCCCCCCCCCCCCCCNc1cc(C(F)(F)F)nc(-c2ccccn2)n1 [compound 96]	120 (≈ 266 µM)	120 (≈ 266 µM)	–	–
CC(C)c1cc(NCc2ccccc2)nc(-c2ccccn2)n1 [compound 97]	15 (≈ 49.3 µM)	120 (≈ 394 µM)	–	–

Further lines, results first:

Minimum inhibitory concentration (MIC) S. hominis [1] [µg/mL]	Minimum inhibitory concentration (MIC) E. coli [2] [µg/mL]	MIC ([1]; Staphylococcus hominis, DMS20328, read-out: Minimum inhibitory concentration (MIC) S. hominis) [µg/mL]	MIC ([2]; Escherichia coli, NCTC8196, read-out: Minimum inhibitory concentration (MIC) E. coli) [µg/mL]	SMILES
>120	>120	–	–	CCc1c(C)nc(-c2ccccn2)nc1NCCCCCCCN [compound 4]
>120	>120	–	–	CCc1c(C)nc(-c2ccccn2)nc1NCCCCCCCCN [compound 5]
120 (≈ 274 µM)	>120	–	–	CCCCCCCCCCCCCCCCNc1nc(-c2ccccn2)nc(C)c1CC [compound 13]
>120	>120	–	–	Cc1cc(NCCCCCCCN)nc(-c2ccccn2)n1 [compound 16]
>80	>80	–	–	Cc1cc(NCCCCCCCCN)nc(-c2ccccn2)n1 [compound 17]
15 (≈ 36.5 µM)	>120	–	–	CCCCCCCCCCCCCCCCNc1cc(C)nc(-c2ccccn2)n1 [compound 25]
5 (≈ 11.8 µM)	20 (≈ 47.2 µM)	–	–	NCCCCCCCCCCCCNc1cc(C(F)(F)F)nc(-c2ccccn2)n1 [compound 31]
120 (≈ 366 µM)	>120	–	–	CC(C)c1cc(NCCCCCCCN)nc(-c2ccccn2)n1 [compound 40]
120 (≈ 351 µM)	>120	–	–	CC(C)c1cc(NCCCCCCCCN)nc(-c2ccccn2)n1 [compound 41]
>120	>120	–	–	CCCCCCCCCCCCCCCCNc1cc(C(C)C)nc(-c2ccccn2)n1 [compound 49]
80 (≈ 225 µM)	>80	–	–	CC(C)(C)c1cc(NCCCCCCCCN)nc(-c2ccccn2)n1 [compound 53]
7.5 (≈ 18.2 µM)	60 (≈ 146 µM)	–	–	CC(C)(C)c1cc(NCCCCCCCCCCCCN)nc(-c2ccccn2)n1 [compound 55]
30 (≈ 87.8 µM)	>120	–	–	Cc1nc(-c2ccccn2)nc(NCCCCCCCN)c1C(C)C [compound 64]
5 (≈ 12.1 µM)	20 (≈ 48.6 µM)	–	–	Cc1nc(-c2ccccn2)nc(NCCCCCCCCCCCCN)c1C(C)C [compound 67]
15 (≈ 37.8 µM)	>120	–	–	CCCCCCCCCCCCNc1nc(-c2ccccn2)nc(C)c1C(C)C [compound 72]
120 (≈ 265 µM)	>120	–	–	CCCCCCCCCCCCCCCCNc1nc(-c2ccccn2)nc(C)c1C(C)C [compound 73]
15 (≈ 37.6 µM)	120 (≈ 301 µM)	–	–	CCCCCCCCCCCCNc1cc(CCOC)nc(-c2ccccn2)n1 [compound 84]
